Laboratory results published in patent publication US8372844B2, “Piperazinyl-propyl-pyrazole derivatives as dopamine D4 receptor antagonists, and pharmaceutical compositions containing the same” (Korea Research Institute of Chemical Technology, priority 2007, dated 2013).
pIC50: −log10 of the molar value.

Columns and labels:
[1] = target: T1, human recombinant dopamine D4.2 receptor (Homo sapiens, UniProt P21917, DEL265-296); experiment: Measurement of affinity for dopamine D4 receptor ([3H]YM-09151-2 binding); details: [3H]YM-09151-2 0.1 nM, receptor expressed in CHO-K1 cells, 120 min at 25° C.
T1 construct: purchased PerkinElmer Life and Analytical Sciences, USA; host or cells: CHO-K1 cells
T1 sequence (P21917 with tags, fused parts or gaps DEL265-296): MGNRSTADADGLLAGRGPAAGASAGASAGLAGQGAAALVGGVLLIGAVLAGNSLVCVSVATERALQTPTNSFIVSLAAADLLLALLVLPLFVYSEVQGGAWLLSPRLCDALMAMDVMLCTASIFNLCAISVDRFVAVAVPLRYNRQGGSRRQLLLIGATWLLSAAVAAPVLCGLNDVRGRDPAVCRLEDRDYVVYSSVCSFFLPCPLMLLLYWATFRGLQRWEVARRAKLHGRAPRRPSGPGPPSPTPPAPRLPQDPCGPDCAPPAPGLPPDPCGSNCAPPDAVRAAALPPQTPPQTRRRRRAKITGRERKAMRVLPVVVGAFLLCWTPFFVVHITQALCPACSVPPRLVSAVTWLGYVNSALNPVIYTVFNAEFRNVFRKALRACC
Method: The affinities of the compounds for dopamine D4 receptor were measured by using human recombinant dopamine D4.2 receptor (PerkinElmer Life and Analytical Sciences, USA) expressed in CHO-K1 cells, and [^3H]YM-09151-2 (PerkinElmer) was used as a radioactive ligand.
50 mM Tris-HCl (pH 7.4) containing 120 mM NaCl, 5 mM KCl, 5 mM MgCl2 and 1 mM EDTA was used as a buffer solution for the analysis of receptor binding. [^3H] YM-09151-2 binding reactions were performed in a 96-well plate format.
For drug screening, a reaction mixture with a final volume of 0.25 mL was prepared by mixing a compound of the present invention, D4 receptor membrane (43 μg/well), [^3H] YM-09151-2 (0.1 nM), 50 mM Tris-HCl (pH 7.4) and the like. The reaction mixture was incubated for 120 min at 25° C., and then promptly passed through Wallac GF/C glass fiber filter (Wallac, Finland), which was already wetted in 0.5% PEI, by using Inotech harvester (Inotech) to terminate the reaction, and then washed with cold 50 mM Tris-HCl buffer solution. The filter was then covered with MeltiLex, sealed in a sample bag, and then dried in an oven. The radioactivity retained in the filter was finally counted using MicroBeta Plus, Wallac.
The affinity (IC50) of a compound for the receptor was calculated via nonlinear regression analysis of sigmoidal dose-response equation with the data obtained from three independent experiments (GraphPad Prism Program, San Diego, USA), which are carried out using 7-8 different concentrations of the compound in duplicate. Nonspecific binding was measured in the presence of 10 μM clozapine.

[2] = target: T2, Human recombinant dopamine D3 receptor (Homo sapiens, UniProt P35462); experiment: Measurement of affinity for dopamine D3 receptor ([3H]spiperone binding); details: [3H]spiperone 0.8 nM, CHO cell line, 60 min at 27° C.
T2 construct: purchased Euroscreen; host or cells: CHO cell line
T2 sequence (P35462 whole entry): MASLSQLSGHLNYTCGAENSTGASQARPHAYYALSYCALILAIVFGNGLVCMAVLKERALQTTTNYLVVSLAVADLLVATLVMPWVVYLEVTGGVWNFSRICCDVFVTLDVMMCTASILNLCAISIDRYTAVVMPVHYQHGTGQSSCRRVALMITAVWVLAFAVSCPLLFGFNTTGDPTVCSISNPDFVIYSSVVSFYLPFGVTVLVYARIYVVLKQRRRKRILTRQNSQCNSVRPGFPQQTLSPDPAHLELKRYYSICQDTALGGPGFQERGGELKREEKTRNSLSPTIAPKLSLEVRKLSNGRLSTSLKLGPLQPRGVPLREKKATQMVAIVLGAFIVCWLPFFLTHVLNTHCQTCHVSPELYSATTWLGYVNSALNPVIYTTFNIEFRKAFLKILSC
Method: Human recombinant dopamine D2 and D3 receptors, which were expressed in CHO cell lines, respectively, were purchased from PerkinElmer and Euroscreen, respectively.
50 mM Tris-HCl (pH 7.4) containing […] and 1 mM EDTA was used as a buffer solution for the measurement of affinity for dopamine D2 receptor. 50 mM Tris-HCl (pH 7.4) containing 5 mM MgCl2, 5 mM EDTA, 5 mM KCl, 1.5 mM CaCl2 and 120 mM NaCl was used as a buffer solution for the measurement of affinity for dopamine D3 receptor. For measurement of non-specific binding, 10 μM haloperidol (haloperidol) was used.

5-HT2A receptor = 5-HT2A receptor (Homo sapiens, UniProt P28223); experiment: Serotonin receptor binding experiment, 5-HT2A; parameters: species or system human or rat; details: [3H]ketanserin 1 nM, 15 min at 37° C.; read-out: Receptor affinity (IC50, nM) 5-HT2A
Chain of 5-HT2A receptor (P28223 whole entry): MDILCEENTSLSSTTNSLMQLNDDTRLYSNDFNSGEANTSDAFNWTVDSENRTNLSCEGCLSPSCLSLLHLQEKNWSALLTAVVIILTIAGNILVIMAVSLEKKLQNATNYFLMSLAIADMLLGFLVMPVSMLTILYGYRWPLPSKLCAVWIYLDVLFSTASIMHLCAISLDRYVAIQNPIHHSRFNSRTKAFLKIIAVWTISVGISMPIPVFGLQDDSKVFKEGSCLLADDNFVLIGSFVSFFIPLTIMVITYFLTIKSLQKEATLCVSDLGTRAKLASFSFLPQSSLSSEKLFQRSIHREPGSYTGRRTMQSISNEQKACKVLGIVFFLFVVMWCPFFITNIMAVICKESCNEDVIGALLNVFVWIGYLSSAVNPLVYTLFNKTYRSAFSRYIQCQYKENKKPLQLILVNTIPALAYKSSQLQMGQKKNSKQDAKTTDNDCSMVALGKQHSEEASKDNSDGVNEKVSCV
Method: (§1) The measurement of affinity for serotonin 5-HT receptor family was performed according to the experimental conditions as specified in Table 2 below using the method same as in Experimental Example 1 above.

5-HT7 receptor = 5-HT7 receptor (Homo sapiens, UniProt P34969); experiment: Serotonin receptor binding experiment, 5-HT7; parameters: species or system human or rat; details: [3H]LSD 3 nM, 90 min at 27° C.; read-out: Receptor affinity (IC50, nM) 5-HT7
Chain of 5-HT7 receptor (P34969 whole entry): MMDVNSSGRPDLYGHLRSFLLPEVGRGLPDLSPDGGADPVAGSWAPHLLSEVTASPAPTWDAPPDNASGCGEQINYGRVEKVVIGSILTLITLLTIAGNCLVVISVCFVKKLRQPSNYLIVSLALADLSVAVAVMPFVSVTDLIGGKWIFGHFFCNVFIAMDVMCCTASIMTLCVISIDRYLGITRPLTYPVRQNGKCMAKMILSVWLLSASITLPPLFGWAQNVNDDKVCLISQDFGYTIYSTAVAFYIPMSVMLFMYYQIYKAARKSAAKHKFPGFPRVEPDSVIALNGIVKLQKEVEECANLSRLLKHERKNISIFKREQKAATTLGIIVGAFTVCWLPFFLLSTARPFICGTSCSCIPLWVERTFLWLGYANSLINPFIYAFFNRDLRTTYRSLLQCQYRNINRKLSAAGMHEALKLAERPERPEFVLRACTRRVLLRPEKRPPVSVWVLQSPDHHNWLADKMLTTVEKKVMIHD
Method: as §1

Rotarod deficit in mice [3] = format: in vivo; details: mouse, in vivo, ip, mice, rod rotating at 6 rpm, 30-120 min after administration
Method: (§2) Each mouse was administered with a test drug, and then placed on a 1 inch diameter knurled plastic rod rotating at 6 rpm (Ugo-Basile, Milano, Italy), and the rotarod deficit (%) was obtained by counting the number of mice fallen from the rotating rod within 1 min at 30, 60, 90, and 120 min after the administration of the drug.

rotarod deficit in mice [4] = experiment: Rotarod deficit in mice; format: in vivo; details: for Rotarod deficit TD50 (mg/kg, ip): mice, rod rotating at 6 rpm, 30-120 min after administration; for rotarod deficit TD50 as times of ED50 for antipsychotic efficacy: mouse, in vivo, ip
Method: as §2

5-HT1A receptor = target: T3, 5-HT1A receptor (Homo sapiens, UniProt P08908); experiment: Serotonin receptor binding experiment, 5-HT1A; parameters: species or system human or rat; details: [3H]8-OH-DPAT 0.5 nM, 60 min at 27° C.; read-out: Receptor affinity (IC50, nM) 5-HT1A
T3 sequence (P08908 1-422): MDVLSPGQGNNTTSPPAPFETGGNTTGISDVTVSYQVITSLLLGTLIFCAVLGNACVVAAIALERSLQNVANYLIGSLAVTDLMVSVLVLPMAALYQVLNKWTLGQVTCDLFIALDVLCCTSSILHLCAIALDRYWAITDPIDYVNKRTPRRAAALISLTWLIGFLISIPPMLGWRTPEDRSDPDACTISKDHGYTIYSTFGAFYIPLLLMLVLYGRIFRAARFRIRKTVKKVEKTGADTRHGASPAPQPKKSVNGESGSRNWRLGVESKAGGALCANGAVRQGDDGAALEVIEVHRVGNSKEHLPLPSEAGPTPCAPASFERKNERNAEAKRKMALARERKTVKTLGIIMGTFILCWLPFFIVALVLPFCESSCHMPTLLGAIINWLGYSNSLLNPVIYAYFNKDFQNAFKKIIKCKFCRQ
Method: as §1

5-HT6 receptor = 5-HT6 receptor (Homo sapiens, UniProt P50406); experiment: Serotonin receptor binding experiment, 5-HT6; parameters: species or system human or rat; details: [3H]LSD 1.8 nM, 60 min at 37° C.; read-out: Receptor affinity (IC50, nM) 5-HT6
Chain of 5-HT6 receptor (P50406 whole entry): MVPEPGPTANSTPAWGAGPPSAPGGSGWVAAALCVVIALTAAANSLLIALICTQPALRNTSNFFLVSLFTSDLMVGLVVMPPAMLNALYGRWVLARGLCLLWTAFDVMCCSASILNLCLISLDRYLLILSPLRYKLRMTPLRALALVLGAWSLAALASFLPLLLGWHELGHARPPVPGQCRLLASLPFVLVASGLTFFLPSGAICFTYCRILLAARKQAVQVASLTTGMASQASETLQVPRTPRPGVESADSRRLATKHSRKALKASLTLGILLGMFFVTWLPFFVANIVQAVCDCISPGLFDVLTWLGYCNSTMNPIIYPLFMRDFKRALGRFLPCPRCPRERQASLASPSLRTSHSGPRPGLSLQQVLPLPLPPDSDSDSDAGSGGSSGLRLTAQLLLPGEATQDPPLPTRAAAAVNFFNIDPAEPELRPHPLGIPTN
Method: as §1

Compound | pIC50 [1] | IC50 [2] [nM] | IC50 (5-HT2A receptor) [nM] | IC50 (5-HT7 receptor) [nM] | TD50 (Rotarod deficit in mice [3]) [mg/kg] | Rotarod deficit TD50 (mg/kg, ip) (rotarod deficit in mice [4]) [mg/kg] | rotarod deficit TD50 as times of ED50 for antipsychotic efficacy (rotarod deficit in mice [4]) | IC50 (5-HT1A receptor) [nM] | IC50 (5-HT6 receptor) [nM]
CCCc1cc(CCCN2CCN(c3ccccc3)CC2)n(-c2ccccc2)n1 [Compound 155, 1-phenyl-4-(3-(1-phenyl-3-propyl-1H-pyrazol-5-yl)propyl)piperazine] | 8.23 | 461 | 35 | 259 | 20 to 50 | 28.5 | 2.2-5 times | 109 | > 10000
CCCc1cc(CCCN2CCN(c3ccccc3F)CC2)n(-c2ccccc2)n1 [Compound 156, 1-(2-fluorophenyl)-4-(3-(1-phenyl-3-propyl-1H-pyrazol-5-yl)propyl)piperazine] | 8.46 | 87 | 152 | 313 | 20 to 50 | 26.0 | 2.2-5 times | 126 | > 10000
CCCc1cc(CCCN2CCN(c3ccc(C)c(C)c3)CC2)n(-c2ccccc2)n1 [Compound 159, 1-(3,4-dimethylphenyl)-4-(3-(1-phenyl-3-propyl-1H-pyrazol-5-yl)propyl)piperazine] | 8.89 | 131 | 8 | 195 | 20 to 50 | 35.3 | 2.2-5 times | 413 | 2500
CCCc1cc(CCCN2CCN(c3cccc(C)c3C)CC2)n(-c2ccccc2)n1 [Compound 160, 1-(2,3-dimethylphenyl)-4-(3-(1-phenyl-3-propyl-1H-pyrazol-5-yl)propyl)piperazine] | 8.54 | 229 | 65 | 84 | 20 to 50 | 24.6 | 2.2-5 times | 50 | 2010
CC(C)c1cc(CCCN2CCN(c3ccccc3F)CC2)n(-c2ccccc2)n1 [Compound 177, 1-(2-fluorophenyl)-4-(3-(1-phenyl-3-isopropyl-1H-pyrazol-5-yl)propyl)piperazine] | 8.10 | 687 | 27 | 252 | 20 to 50 | 19.4 | 2.2-5 times | 37 | 9210
